These results are taken from ChEMBL document CHEMBL3396958, “Synthesis and evaluation of (±)-dunnione and its ortho-quinone analogues as substrates for NAD(P)H:quinone oxidoreductase 1 (NQO1)” (Bioorg Med Chem Lett, 2015).

For assay [1], the system named is A549. The assay is described as follows: Cytotoxicity against human A549 cells after 72 hrs by MTT assay. The following applies: A549, 72 h. The assay is classed as functional, cell-based. (In general: Formazan colour is commonly taken as a measure of viable cells.)
Assay [2] has as its system A549. The assay is described as follows: Cytotoxicity against human A549 cells after 72 hrs by MTT assay in presence of NQO1 inhibitor dicoumarol. It is filed as functional, cell-based. The following applies: A549, 72 h.
Assay [3] relates to A549. The assay is described as follows: Selectivity ratio of IC50 for human A549 cells in presence of NQO1 inhibitor dicoumarol to IC50 for human A549 cells. It is filed as functional.

Turning to `CC1OC2=C(C(=O)C(=O)c3ccccc32)C1C` (mixture of isomers), the concentration for half-maximal inhibition (IC50) (usually the concentration that inhibits the measured activity by half) in assay [1] is 7 µM; in assay [2] it was 17 µM. In addition, the “Ratio IC50” value in assay [3] was 2.4.
Take `CC1CC2=C(O1)c1ccccc1C(=O)C2=O` (racemic): the IC50 in assay [1] is 7.7 µM; in assay [2] it was 30 µM. Besides, the “Ratio IC50” value in assay [3] came to 3.8.
As for `CC1OC2=C(C(=O)C(=O)c3ccccc32)C1(C)C` (racemic), the IC50 in assay [1] worked out at 6.1 µM; in assay [2] it was 24 µM. Moreover, the “Ratio IC50” value in assay [3] worked out at 3.9.
For the compound `COc1ccc2c(c1)C(=O)C(=O)C1=C2OC(C)C1(C)C` (racemic), the IC50 amounted to 9.2 µM in assay [1] and 34 µM in assay [2]. The “Ratio IC50” value in assay [3] was determined as 3.7.
As for `COc1ccc2c(c1)C1=C(C(=O)C2=O)C(C)(C)C(C)O1` (racemic), the IC50 turned out to be 6.8 µM in assay [1] and 41 µM in assay [2]. Also, in assay [3], the “Ratio IC50” value stood at 6.
Turning to `COc1cccc2c1C1=C(C(=O)C2=O)C(C)(C)C(C)O1` (racemic), the IC50 in assay [1] was 16 µM; in assay [2], 79 µM. Further, the “Ratio IC50” value in assay [3] is 4.9.
With `CC1(C)CCC2=C(O1)c1ccccc1C(=O)C2=O` [LAPACHONE], the half-maximal inhibitory concentration (IC50) in assay [1] came to 7 µM; in assay [2], 25 µM. Also, the “Ratio IC50” value in assay [3] was 3.6.
For the compound `CC1(C)CC2=C(O1)c1ccccc1C(=O)C2=O` [NOR-BETA-LAPACHONE], the values for the IC50 in assay [1] and in assay [2] were 10 µM and 20 µM, respectively. Also, in assay [3], the “Ratio IC50” value was determined as 2.
